Measurements reported in patent US20170202219A1, “CLOQUINTOCET SALTS FOR SAFENING PYROXSULAM COMPOSITIONS” (Dow AgroSciences LLC, priority 2016, published 2017).
Like-named read-outs stand apart in the source and are kept apart here.

Columns and labels:
cell membranes [1] = test system: cell membranes
[2] = Water solubility of cloquintocet salts at 20° C.
[3] = test system: wild oats (Avena fatua L., AVEFA); experiment: Greenhouse evaluation, control of wild oats; format: in vivo; conditions: pyroxsulam:cloquintocet (AE) 1:2.1, postemergence spray
Description: A peat based potting soil, Metro-mix 360, (produced by Sun Gro Horticulture Canada CM Ltd) was used as the soil media for this test. Metro-mix 360 is a growing medium consisting of Canadian sphagnum peat moss, coarse perlite, bark ash, starter nutrient charge (with gypsum) and slow release nitrogen and dolomitic limestone. Several seeds of each crop or weed species were planted in 10 cm square pots and top watered twice daily. Plant material was propagated in greenhouse zone E2 at temperatures ranging from 18 to 20° C. and 50 to 60% relative humidity. Natural light was supplemented with 1000-watt metal halide overhead lamps with an average illumination of 500 microeinsteins per square meter per second (μE m^−2 s^−1) photosynthetic active radiation (PAR). Day length was 16 hours. Plant material was top-watered prior to treatment and sub-irrigated after treatment.
Herbicides were applied with a track sprayer manufactured by Allen Machine Works and located in building 306, room E1-483, at the Dow AgroSciences Indianapolis, Ind. Global Headquarters site (9330 Zionsville Road, Indianapolis, Ind., USA). The track sprayer was calibrated to deliver 50 L/ha at 40 psi (262 kPa) pressure utilizing an 8001E even flat fan nozzle tip with a speed of 1.6 mph (2.6 km/h). The nozzle height was 46 cm above the plant canopy. Appropriate amounts of formulated product were added to vials as calculated by the software package ARM8 (Gylling Data Management Inc.). The vials contained a pH 7 phosphate buffer (Fischer Scientific) and the herbicide aliquots were diluted to a total volume of 60 ml. The growth stage of the crop and weed species at application was 2 to 4 leaf (Table 11). The application rates were 0, 17.8 and 37.6 g ai/ha of pyroxsulam for crop tolerance comparisons and 0, 2.35 and 4.7 g ai/ha of pyroxsulam for weed control comparisons. Cloquintocet was applied at a 1:2.1 ratio of pyroxsulam (g ai):cloquintocet (g ae) in all treatments containing the safener. Treatments were replicated 4 times. Plants were returned to the greenhouse after treatment and sub-watered throughout the duration of the experiment. Plant material was fertilized twice weekly with Hoagland's fertilizer solution that is readily available in the greenhouses. Percent visual injury assessments were made on a scale of 0 to 100% as compared to the untreated control plants (where 0 is equal to no injury and 100 is equal to complete death of the plant.
Visual determination of the control of wild oats (Avena fatua L., AVEFA) treated with pyroxsulam alone and with several forms of cloquintocet was conducted. All forms of cloquintocet were applied at a 1:2.1 weight ratio of pyroxsulam:cloquintocet (AE).

[4] = test system: spring wheat (Triticum aestivum L., TRZAS); conditions: pyroxsulam:cloquintocet (AE) 1:2.1, postemergence spray
[5] = test system: durum wheat (Triticum durum L. TRZDU); conditions: pyroxsulam:cloquintocet (AE) 1:2.1, postemergence spray
cell membranes [6] = test system: cell membranes; remark: listed apart in the source
cell membranes [7] = experiment: Neutral Red Release (NRR) assay, eye irritation potential of aqueous CQC salt solutions; conditions: for NRR50, mg ae/mL: aqueous solution of the CQC salt diluted in PBS, NRR50 corrected to CQC acid equivalent concentration
[8] = solubility solution, water, 20° C.

Compound: O=C(O)COc1ccc(Cl)c2cccnc12 [Acid, Cloquintocet]
- NRR50, mg ae/mL (cell membranes [1]): 9 mg ae/mL
- Calculated water solubility wt % ai ([2]; pH 7 buffer solution, 20° C.): 1.4 wt % ai
- Density ([2]; pH 7 buffer solution, 20° C.): 1.0 g/mL
- Neat pH ([2]; pH 7 buffer solution, 20° C.): 5.6
- Water Solubility wt % ae ([2]; pH 7 buffer solution, 20° C.): 1.4 wt % ae
- Water Solubility wt % ae ([2]; pH 7 buffer solution, 20° C., listed as CQC acid): about 1.4 wt % ae
- AVEFA Control 21 DAA (% Control) ([3]; pyroxsulam 2.35 g ai/ha): 96 % Control
- AVEFA Control 21 DAA (% Control) ([3]; pyroxsulam 4.7 g ai/ha): 99 % Control

Compound: OCCNCCO [Diethanolamine]
- AVEFA Control 21 DAA (% Control) ([3]; pyroxsulam 2.35 g ai/ha): 88 % Control
- AVEFA Control 21 DAA (% Control) ([3]; pyroxsulam 4.7 g ai/ha): 94 % Control

Compound: CCNCC [Diethylamine]
- TRZAS Injury 22 DAA (% Injury) ([4]; pyroxsulam 18.8 g ai/ha): 5 % Injury
- TRZAS Injury 22 DAA (% Injury) ([4]; pyroxsulam 37.6 g ai/ha): 15 % Injury
- TRZDU Injury 22 DAA (% Injury) ([5]; pyroxsulam 18.8 g ai/ha): 12 % Injury
- TRZDU Injury 22 DAA (% Injury) ([5]; pyroxsulam 37.6 g ai/ha): 18 % Injury
- AVEFA Control 21 DAA (% Control) ([3]; pyroxsulam 2.35 g ai/ha): 88 % Control
- AVEFA Control 21 DAA (% Control) ([3]; pyroxsulam 4.7 g ai/ha): 99 % Control

Compound: CC(O)CNCC(C)O (centres unmarked) [Diisopropanolamine]
- Density [2, 8]: 1.1 g/mL
- Neat pH [2, 8]: 6.4

Compound: CC(C)NC(C)C [Diisopropylamine]
- Density [2]: 1.1 g/mL
- Neat pH [2]: 5.9

Compound: CNC [Dimethylamine]
- TRZAS Injury 22 DAA (% Injury) ([4]; pyroxsulam 18.8 g ai/ha): 11 % Injury
- TRZAS Injury 22 DAA (% Injury) ([4]; pyroxsulam 37.6 g ai/ha): 11 % Injury
- TRZDU Injury 22 DAA (% Injury) ([5]; pyroxsulam 18.8 g ai/ha): 9 % Injury
- TRZDU Injury 22 DAA (% Injury) ([5]; pyroxsulam 37.6 g ai/ha): 15 % Injury
- Density [2]: 1.2 g/mL
- Neat pH [2]: 6
- AVEFA Control 21 DAA (% Control) ([3]; pyroxsulam 2.35 g ai/ha): 88 % Control
- AVEFA Control 21 DAA (% Control) ([3]; pyroxsulam 4.7 g ai/ha): 90 % Control

Compound: CC(O)CN (centres unmarked) [Isopropanolamine]
- TRZAS Injury 22 DAA (% Injury) ([4]; pyroxsulam 18.8 g ai/ha): 2 % Injury
- TRZAS Injury 22 DAA (% Injury) ([4]; pyroxsulam 37.6 g ai/ha): 20 % Injury
- TRZDU Injury 22 DAA (% Injury) ([5]; pyroxsulam 18.8 g ai/ha): 9 % Injury
- TRZDU Injury 22 DAA (% Injury) ([5]; pyroxsulam 37.6 g ai/ha): 12 % Injury
- NRR50 (% v/v) (cell membranes [6]): 29 % v/v
- NRR50, mg ae/mL (cell membranes [6]): 56 mg ae/mL
- Density [2]: 1.1 g/mL
- Neat pH [2, 8]: 7.4
- AVEFA Control 21 DAA (% Control) ([3]; pyroxsulam 2.35 g ai/ha): 80 % Control
- AVEFA Control 21 DAA (% Control) ([3]; pyroxsulam 4.7 g ai/ha): 90 % Control

Compound: CC(C)N [Isopropylamine]
- Density [2]: 1.1 g/mL
- Neat pH [2]: 5.7
- AVEFA Control 21 DAA (% Control) ([3]; pyroxsulam 2.35 g ai/ha): 90 % Control
- AVEFA Control 21 DAA (% Control) ([3]; pyroxsulam 4.7 g ai/ha): 99 % Control

Compound: NCCO [Monoethanolamine]
- Density [2, 8]: 1.1 g/mL
- Neat pH [2, 8]: 6.3

Compound: CN(C)CCO [N,N-dimethylethanolamine]
- Neat pH [2, 8]: 5.7

Compound: COc1cc(OC)n2nc(NS(=O)(=O)c3c(C(F)(F)F)ccnc3OC)nc2n1 [Pyroxsulam, N-(5,7-dimethoxy [1,2,4]triazolo [1,5-a]pyrimidin-2-yl)-2-methoxy-4-(trifluoromethyl)pyridine-3-sulfonamide]
- AVEFA Control 21 DAA (% Control) ([3]; pyroxsulam 2.35 g ai/ha): 86 % Control
- AVEFA Control 21 DAA (% Control) ([3]; pyroxsulam 4.7 g ai/ha): 98 % Control

Compound: CCCCCCCCCCCCOS(=O)(=O)[O-].[Na+] [SDS, Sodium dodecyl sulfate]
- NRR assay result of positive control (cell membranes [7]; 5 mg/ml, two independent assay replicates): positive

Compound: CCCCCC(C)OC(=O)COc1ccc(Cl)c2cccnc12 (centres unmarked) [mexyl, cloquintocet-mexyl, reference compound]
- AVEFA Control 21 DAA (% Control) ([3]; pyroxsulam 2.35 g ai/ha): 71 % Control
- AVEFA Control 21 DAA (% Control) ([3]; pyroxsulam 4.7 g ai/ha): 84 % Control

Compound: Ammonium [reference compound]
- NRR50, mg ae/mL (cell membranes [7]): 3 mg ae/mL
- Density [2, 8]: 1.0 g/mL
- Neat pH [2, 8]: 5.7

Compound: cloquintocet choline salt
- TRZAS Injury 22 DAA (% Injury) ([4]; pyroxsulam 18.8 g ai/ha): 6 % Injury
- TRZAS Injury 22 DAA (% Injury) ([4]; pyroxsulam 37.6 g ai/ha): 21 % Injury
- TRZDU Injury 22 DAA (% Injury) ([5]; pyroxsulam 18.8 g ai/ha): 9 % Injury
- TRZDU Injury 22 DAA (% Injury) ([5]; pyroxsulam 37.6 g ai/ha): 12 % Injury
- NRR50, mg ae/mL (cell membranes [7]): 213 mg ae/mL
- Density [2]: 1.1 g/mL
- Neat pH [2]: 6.8
- AVEFA Control 21 DAA (% Control) ([3]; pyroxsulam 2.35 g ai/ha): 94 % Control
- AVEFA Control 21 DAA (% Control) ([3]; pyroxsulam 4.7 g ai/ha): 99 % Control
